Measurements published in the supplement of paper PMC10307832.

Legend:
Assay in all cases: relative viability (nuclei count vs DMSO), 5 days (fraction); higher = more cells survive
NCI-H1355 = tested on: NCI-H1355
Method in brief: (§1)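 Dosing by pin tool came one day after lung cancer cell lines were seeded in 1536-well plates, using either one drug or a fixed anchor-drug dose plus five library-drug doses (not always all listed) in √10 steps. After 5 days, nuclei were counted on 4× images. Relative viability is treated-well nuclei count divided by vehicle-well nuclei count, and values are medians of duplicate plates.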

COR-L23 = tested on: COR-L23
Method in brief: as §1

NCI-H2023 = tested on: NCI-H2023
Method in brief: as §1

PC-14 = tested on: PC-14
Method in brief: as §1

LC-2-ad = tested on: LC-2-ad
Method in brief: as §1

HCC-44 = tested on: HCC-44
Method in brief: as §1

NCI-H838 = tested on: NCI-H838
Method in brief: as §1

ABC-1 = tested on: ABC-1
Method in brief: as §1

HARA = tested on: HARA
Method in brief: as §1

NCI-H2085 = tested on: NCI-H2085
Method in brief: as §1

HOP-62 = tested on: HOP-62
Method in brief: as §1

HCC-15 = tested on: HCC-15
Method in brief: as §1

UMC-11 = tested on: UMC-11
Method in brief: as §1

NCI-H2126 = tested on: NCI-H2126
Method in brief: as §1

SW 1573 = tested on: SW 1573
Method in brief: as §1

NCI-H1651 = tested on: NCI-H1651
Method in brief: as §1

EPLC-272H = tested on: EPLC-272H
Method in brief: as §1

NCI-H2347 = tested on: NCI-H2347
Method in brief: as §1

NCI-H1915 = tested on: NCI-H1915
Method in brief: as §1

LU99A = tested on: LU99A
Method in brief: as §1

NCI-H650 = tested on: NCI-H650
Method in brief: as §1

NCI-H1993 = tested on: NCI-H1993
Method in brief: as §1

NCI-H358 = tested on: NCI-H358
Method in brief: as §1

`O=c1cc(-c2cccc3c2Sc2ccccc2S3)oc(N2CCOCC2)c1` + N=C(N)NC(=N)NCCc1ccccc1 [Phenformin] (partner 250 µM) was tested, and the relative viability (NCI-H1355; first compound 0.08 µM) was 0.47, the relative viability (NCI-H1355; first compound 0.253 µM) was 0.479 and the relative viability (NCI-H1355; first compound 0.8 µM) was 0.421. The relative viability (NCI-H1355; first compound 2.53 µM) was 0.429, the relative viability (NCI-H1355; first compound 8 µM) was 0.409 and the relative viability (COR-L23; first compound 0.08 µM) was 0.478. It also gave a relative viability (COR-L23; first compound 0.253 µM) of 0.484, a relative viability (COR-L23; first compound 0.8 µM) of 0.511 and a relative viability (COR-L23; first compound 2.53 µM) of 0.459. For the same molecule, the relative viability (COR-L23; first compound 8 µM) was 0.545, the relative viability (NCI-H2023; first compound 0.08 µM) was 0.401 and the relative viability (NCI-H2023; first compound 0.253 µM) was 0.484. It also gave a relative viability (NCI-H2023; first compound 0.8 µM) of 0.476, a relative viability (NCI-H2023; first compound 2.53 µM) of 0.362 and a relative viability (NCI-H2023; first compound 8 µM) of 0.44. For the same molecule, the relative viability (PC-14; first compound 0.08 µM) was 0.553, the relative viability (PC-14; first compound 0.253 µM) was 0.479 and the relative viability (PC-14; first compound 0.8 µM) was 0.54. The relative viability (PC-14; first compound 8 µM) was 0.746, the relative viability (LC-2-ad; first compound 0.08 µM) was 0.557 and the relative viability (LC-2-ad; first compound 0.253 µM) was 0.576. The relative viability (LC-2-ad; first compound 0.8 µM) was 0.645, the relative viability (LC-2-ad; first compound 2.53 µM) was 0.558 and the relative viability (LC-2-ad; first compound 8 µM) was 0.592. For the same molecule, the relative viability (HCC-44; first compound 0.08 µM) was 0.173, the relative viability (HCC-44; first compound 0.253 µM) was 0.172 and the relative viability (HCC-44; first compound 0.8 µM) was 0.144. It also gave a relative viability (HCC-44; first compound 2.53 µM) of 0.182, a relative viability (HCC-44; first compound 8 µM) of 0.217 and a relative viability (NCI-H838; first compound 0.08 µM) of 0.517. For the same molecule, the relative viability (NCI-H838; first compound 0.253 µM) was 0.726, the relative viability (NCI-H838; first compound 0.8 µM) was 0.488 and the relative viability (NCI-H838; first compound 2.53 µM) was 0.531. The relative viability (NCI-H838; first compound 8 µM) was 0.503, the relative viability (ABC-1; first compound 0.08 µM) was 0.228 and the relative viability (ABC-1; first compound 0.253 µM) was 0.23. For the same molecule, the relative viability (ABC-1; first compound 0.8 µM) was 0.23, the relative viability (ABC-1; first compound 2.53 µM) was 0.234 and the relative viability (ABC-1; first compound 8 µM) was 0.277. The relative viability (HARA; first compound 0.08 µM) was 0.452, the relative viability (HARA; first compound 0.253 µM) was 0.592 and the relative viability (HARA; first compound 0.8 µM) was 0.435. It also gave a relative viability (HARA; first compound 2.53 µM) of 0.348, a relative viability (HARA; first compound 8 µM) of 0.702 and a relative viability (NCI-H2085; first compound 0.08 µM) of 0.654. For the same molecule, the relative viability (NCI-H2085; first compound 0.253 µM) was 0.702, the relative viability (NCI-H2085; first compound 0.8 µM) was 0.739 and the relative viability (NCI-H2085; first compound 2.53 µM) was 0.678. For the same molecule, the relative viability (NCI-H2085; first compound 8 µM) was 0.576, the relative viability (HOP-62; first compound 0.08 µM) was 0.714 and the relative viability (HOP-62; first compound 0.253 µM) was 0.899. The relative viability (HOP-62; first compound 0.8 µM) was 0.688, the relative viability (HOP-62; first compound 2.53 µM) was 0.663 and the relative viability (HOP-62; first compound 8 µM) was 0.799. It also gave a relative viability (HCC-15; first compound 0.08 µM) of 0.394, a relative viability (HCC-15; first compound 0.253 µM) of 0.608 and a relative viability (HCC-15; first compound 0.8 µM) of 0.468. It also gave a relative viability (HCC-15; first compound 2.53 µM) of 0.472, a relative viability (HCC-15; first compound 8 µM) of 0.503 and a relative viability (UMC-11; first compound 0.08 µM) of 0.322. For the same molecule, the relative viability (UMC-11; first compound 0.253 µM) was 0.34, the relative viability (UMC-11; first compound 0.8 µM) was 0.372 and the relative viability (UMC-11; first compound 2.53 µM) was 0.29. It also gave a relative viability (UMC-11; first compound 8 µM) of 0.324, a relative viability (NCI-H2126; first compound 0.08 µM) of 0.53 and a relative viability (NCI-H2126; first compound 0.253 µM) of 0.584. It also gave a relative viability (NCI-H2126; first compound 0.8 µM) of 0.482, a relative viability (NCI-H2126; first compound 2.53 µM) of 0.517 and a relative viability (NCI-H2126; first compound 8 µM) of 0.521. For the same molecule, the relative viability (SW 1573; first compound 0.08 µM) was 0.38, the relative viability (SW 1573; first compound 0.253 µM) was 0.369 and the relative viability (SW 1573; first compound 0.8 µM) was 0.339. It also gave a relative viability (SW 1573; first compound 2.53 µM) of 0.347, a relative viability (SW 1573; first compound 8 µM) of 0.364 and a relative viability (NCI-H1651; first compound 0.08 µM) of 0.342. It also gave a relative viability (NCI-H1651; first compound 0.253 µM) of 0.526, a relative viability (NCI-H1651; first compound 0.8 µM) of 0.423 and a relative viability (NCI-H1651; first compound 2.53 µM) of 0.362. For the same molecule, the relative viability (NCI-H1651; first compound 8 µM) was 0.299, the relative viability (EPLC-272H; first compound 0.08 µM) was 0.247 and the relative viability (EPLC-272H; first compound 0.253 µM) was 0.333. It also gave a relative viability (EPLC-272H; first compound 0.8 µM) of 0.318, a relative viability (EPLC-272H; first compound 2.53 µM) of 0.254 and a relative viability (EPLC-272H; first compound 8 µM) of 0.255. It also gave a relative viability (NCI-H2347; first compound 0.08 µM) of 0.541, a relative viability (NCI-H2347; first compound 0.253 µM) of 0.501 and a relative viability (NCI-H2347; first compound 0.8 µM) of 0.416. It also gave a relative viability (NCI-H2347; first compound 2.53 µM) of 0.279, a relative viability (NCI-H2347; first compound 8 µM) of 0.362 and a relative viability (NCI-H1915; first compound 0.08 µM) of 0.37. The relative viability (NCI-H1915; first compound 0.253 µM) was 0.4, the relative viability (NCI-H1915; first compound 0.8 µM) was 0.436 and the relative viability (NCI-H1915; first compound 2.53 µM) was 0.355. For the same molecule, the relative viability (NCI-H1915; first compound 8 µM) was 0.406, the relative viability (LU99A; first compound 0.08 µM) was 0.872 and the relative viability (LU99A; first compound 0.253 µM) was 1.08. For the same molecule, the relative viability (LU99A; first compound 0.8 µM) was 1.03, the relative viability (LU99A; first compound 2.53 µM) was 0.896 and the relative viability (LU99A; first compound 8 µM) was 1. The relative viability (NCI-H650; first compound 0.08 µM) was 0.386, the relative viability (NCI-H650; first compound 0.253 µM) was 0.437 and the relative viability (NCI-H650; first compound 0.8 µM) was 0.461. It also gave a relative viability (NCI-H650; first compound 8 µM) of 0.452, a relative viability (NCI-H1993; first compound 0.08 µM) of 0.494 and a relative viability (NCI-H1993; first compound 0.253 µM) of 0.52. It also gave a relative viability (NCI-H1993; first compound 0.8 µM) of 0.589, a relative viability (NCI-H1993; first compound 2.53 µM) of 0.565 and a relative viability (NCI-H1993; first compound 8 µM) of 0.56. For the same molecule, the relative viability (NCI-H358; first compound 0.08 µM) was 0.301, the relative viability (NCI-H358; first compound 0.253 µM) was 0.436 and the relative viability (NCI-H358; first compound 0.8 µM) was 0.378. The relative viability (NCI-H358; first compound 2.53 µM) was 0.362 and the relative viability (NCI-H358; first compound 8 µM) was 0.356.
